Data: PubChem BioAssay (NCI)
“And” between values parts separate entries of the source, which are not always exact repeats. Identical values can stand only once.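 1) Cells in 96-well plates. 2) Compound, 48 h, 5 concentrations. 3) Linear interpolation between surrounding doses. 4) Unreached endpoint = highest concentration. GI50: concentration for 50% inhibition of growth. TGI: concentration producing complete growth inhibition.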

Assays:
Experiment in all cases: NCI tumour cell line growth inhibition, 48 h
SNB-78 CNS = system: SNB-78 CNS
DMS 114 small cell lung = system: DMS 114 small cell lung
M19-MEL melanoma = system: M19-MEL melanoma
HOP-18 NSCLC = system: HOP-18 NSCLC
LXFL 529 NSCLC = system: LXFL 529 NSCLC
KM20L2 colon = system: KM20L2 colon
XF 498 CNS = system: XF 498 CNS
SN12K1 renal = system: SN12K1 renal
P388/ADR leukemia = system: P388/ADR leukemia
P388 leukemia = system: P388 leukemia

## CC(C)C(Nc1c2ccccc2[n+](C)c2ccccc12)C(=O)O (centres undefined)
SNB-78 CNS
  TGI: > 100 µM
DMS 114 small cell lung
  TGI: > 100 µM
M19-MEL melanoma
  TGI: > 100 µM
HOP-18 NSCLC
  TGI: > 100 µM
LXFL 529 NSCLC
  TGI: > 100 µM
KM20L2 colon
  TGI: > 100 µM
XF 498 CNS
  TGI: > 100 µM

## CC1(O)CC2C(CC1SCc1ccccc1)C2(C)C (centres undefined)
SNB-78 CNS
  GI50: 76.7 µM and 17.9 µM
  TGI: > 100 µM and 34.9 µM
DMS 114 small cell lung
  TGI: 33.1 µM
M19-MEL melanoma
  GI50: 26.2 µM and > 100 µM
  TGI: 57.8 µM and > 100 µM
LXFL 529 NSCLC
  GI50: 38.6 µM and 14.8 µM
  TGI: > 100 µM and 28.1 µM
KM20L2 colon
  TGI: 59.4 µM and 35.9 µM
XF 498 CNS
  TGI: 32.9 µM and 37.4 µM

## Cc1cc(C)c(C2=NO[C@@H]3[C@H]2C(=O)C=C2N(Cc4ccccc4)CCO[C@@]23O)c(C)c1
SNB-78 CNS
  TGI: > 100 µM
SN12K1 renal
  TGI: > 100 µM
M19-MEL melanoma
  TGI: > 100 µM
HOP-18 NSCLC
  TGI: > 100 µM
KM20L2 colon
  TGI: > 100 µM
P388/ADR leukemia
  TGI: > 100 µM
XF 498 CNS
  TGI: > 100 µM
P388 leukemia
  TGI: > 100 µM
